Reference: article PMC10739246 (ACS Bio & Med Chem Au, 2023)
Converted amounts (≈) assume the structure as drawn. “Also recorded” adds a separate entry of the source. Read-outs that look alike come from different tables or passages of the source.

Columns and labels:
E. coli [1] = settings: for FICC (fractional inhibitory concentration of the test compound): MICCcheckerboard/MICC; for Outcome: checkerboard with mupirocin; for FICM (MICMcheckerboard/MICM): mupirocin alone 64 µg/mL; for FICI (fractional inhibitory concentration index): with mupirocin, FICC+FICM
P. aeruginosa (PAO1) = assay: MIC, microdilution, P. aeruginosa PAO1; format: cell-based, Pseudomonas aeruginosa
[2] = tested on: norfloxacin-resistant clinical isolate of E. coli; assay: MIC, microdilution, norfloxacin-resistant clinical isolate of E. coli; format: cell-based, Escherichia coli; settings: read-out: MIC E. coli (norfloxacin-resistant strain)
[3] = tested on: K. pneumoniae (ATCC 10031); assay: MIC, K. pneumoniae ATCC 10031; format: cell-based, Klebsiella pneumoniae
E. faecalis (ATCC 19433) = assay: MIC, E. faecalis ATCC 19433; format: cell-based, Enterococcus faecalis
E. coli [4] = assay: microbe, parasite or virus in culture; settings: Escherichia coli, read-out: MICC (MIC of the test compound alone)
E. coli (W3110) = assay: MIC, microdilution, E. coli W3110; format: cell-based, Escherichia coli
S. aureus (CCUG1800T) = assay: MIC, microdilution, S. aureus CCUG1800T; format: cell-based, Staphylococcus aureus; settings: read-out: MIC S. aureus (CCUG1800T)
[5] = tested on: S. aureus (ATCC 43300) MRSA; assay: MIC, microdilution, MRSA ATCC 43300; format: cell-based, Staphylococcus aureus; settings: norfloxacin-resistant strain
[6] = tested on: M. tuberculosis (MC26020); assay: microbe, parasite or virus in culture; format: cell-based, Mycobacterium tuberculosis; settings: for MIC: Mycobacterium tuberculosis, read-out: MIC M. tuberculosis (MC26020)
[7] = tested on: MraY in B. subtilis TNVS284; assay: MraY localization; settings: 1x MIC, 30 min (vancomycin) or 1 h
E. coli W3110 = assay: Bacterial cytological profiling (BCP) in E. coli W3110; format: cell-based, Escherichia coli; settings: for DAPI / phase contrast / FM4-64: 1x MIC, 1 h; for DAPI: DNA condensation; for phase contrast: indicates cell lysis; for FM4-64: membrane stain; for gyrase inhibition / membrane damage: interpretation of BCP in E. coli
B. subtilis DSM402 [8] = settings: for μM (concentration used, 1x MIC): Table 2, cells treated with 1x MIC
[9] = tested on: PonA in B. subtilis TNVS45; assay: PonA localization; settings: 1x MIC, 30 min (vancomycin) or 1 h
B. subtilis DSM402 [10] = assay: Peptidoglycan integrity assay (acetic acid/methanol fixation); settings: 1x MIC; 30 min (cell wall inhibitors) or 60 min
[11] = tested on: cell wall biosynthesis in B. subtilis DSM402; assay: Summary of cell wall synthesis experiments; format: cell-based, Bacillus subtilis
B. subtilis DSM402 [12] = assay: Bacterial cytological profiling (BCP) in B. subtilis DSM402; format: cell-based, Bacillus subtilis; settings: for DAPI / phase contrast / FM4-64: 1x MIC, 1 h; for DAPI: DNA condensation; for phase contrast: indicates cell lysis; for FM4-64: membrane stain; for gyrase inhibition / membrane damage: interpretation of BCP in B. subtilis
[13] = tested on: PbpB in B. subtilis EKB46; assay: PbpB localization; settings: 1x MIC, 30 min (vancomycin) or 1 h
[14] = tested on: MurG in B. subtilis TNVS175; assay: MurG localization; format: cell-based, Bacillus subtilis; settings: for protein localization MurG: 1x MIC, 30 min (vancomycin) or 1 h;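 as to protein localization MurG: normal MurG forms small membrane spots and peptidoglycan inhibition gives large clusters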
MreB in B. subtilis MW10 = assay: MreB mobility assay; format: cell-based, Bacillus subtilis; settings: B. subtilis MW10, 1 h of antibiotic exposure
Method: MreB is an actin homologue that forms filamentous structures along the lateral axis of the cell. It moves along the length of the cells in a spiraling pattern thereby driving lateral peptidoglycan synthesis.[36],[37] MreB mobility is sensitive to inhibition of peptidoglycan synthesis and so far, every cell wall synthesis inhibitor we tested abolished MreB movement (see Figure S70 for examples).
Expression of msfGFP-MreB was induced with 0.3% xylose. Pictures were taken after 1 h of antibiotic exposure. Two images of the same field of view were recorded 30 s apart and overlaid in ImageJ to visualize MreB mobility. A perfect overlap (yellow) indicates stalled MreB movement, while distinct red and green foci are indicative of MreB mobility. Scale bar 2 μm.
Fig. S70: MreB motility in B. subtilis MW10 after treatment with different cell wall synthesis inhibitors. Expression of GFP-MreB was induced with 0.3% xylose. Cells were treated with 1x […]
Two images of the same field of view were recorded 30 sec apart and overlaid in ImageJ to visualize MreB mobility. A perfect overlap (yellow) indicates stalled MreB movement while distinct red and green spots are indicative of MreB mobility. Scale bar 2 µm.

E. coli BCB472 = assay: GlpT localization (inner membrane) in E. coli BCB472; settings: 1x MIC, 1 h; GFP-tagged membrane protein
B. subtilis DSM402 [15] = assay: microbe, parasite or virus in culture; settings: Bacillus subtilis, DSM402, read-out: concentration (MIC against B. subtilis DSM402)
E. coli DNA gyrase = target: T1, E. coli DNA gyrase (Escherichia coli, UniProt P0AES4+P0AES6); assay: In vitro DNA gyrase cleavage assay; format: biochemical
T1 construct: purchased Inspiralis

in vitro = settings: human
[16] = Klebsiella pneumoniae, ATCC10031
[17] = Enterococcus faecalis, ATCC19433
[18] = Escherichia coli, Gram-negative strain, average of duplicate experiments, read-out: MIC E. coli (W3110)

T1 sequence (P0AES4 whole entry, one chain of several): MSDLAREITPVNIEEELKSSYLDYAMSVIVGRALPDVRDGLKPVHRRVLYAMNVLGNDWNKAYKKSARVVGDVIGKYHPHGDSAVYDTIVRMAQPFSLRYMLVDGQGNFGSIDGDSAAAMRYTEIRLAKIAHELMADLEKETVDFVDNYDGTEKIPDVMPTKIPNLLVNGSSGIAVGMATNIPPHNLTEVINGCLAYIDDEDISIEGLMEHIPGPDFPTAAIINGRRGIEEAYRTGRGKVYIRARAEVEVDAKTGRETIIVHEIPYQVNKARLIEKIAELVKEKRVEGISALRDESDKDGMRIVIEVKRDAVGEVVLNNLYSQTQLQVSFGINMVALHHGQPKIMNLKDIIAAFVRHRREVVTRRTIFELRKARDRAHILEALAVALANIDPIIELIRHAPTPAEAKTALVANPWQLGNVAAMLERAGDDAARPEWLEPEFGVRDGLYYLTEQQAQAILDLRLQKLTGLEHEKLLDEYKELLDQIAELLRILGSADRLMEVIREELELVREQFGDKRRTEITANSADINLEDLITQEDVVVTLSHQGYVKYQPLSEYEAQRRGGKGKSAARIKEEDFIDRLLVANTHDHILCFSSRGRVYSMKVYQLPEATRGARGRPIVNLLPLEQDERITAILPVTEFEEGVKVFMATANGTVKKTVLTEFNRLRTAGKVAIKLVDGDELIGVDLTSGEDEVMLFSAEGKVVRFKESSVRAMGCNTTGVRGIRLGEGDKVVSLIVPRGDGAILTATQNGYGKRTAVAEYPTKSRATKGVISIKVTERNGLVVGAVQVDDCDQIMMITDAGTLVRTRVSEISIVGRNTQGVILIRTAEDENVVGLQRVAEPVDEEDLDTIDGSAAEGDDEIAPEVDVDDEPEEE

| Structure (SMILES) | Outcome (E. coli [1]) | FICM (MICMcheckerboard/MICM) (E. coli [1]) | MIC (P. aeruginosa (PAO1); Pseudomonas aeruginosa, PAO1) | MIC [3, 16] | MIC (E. faecalis (ATCC 19433); [17]) | MIC (E. coli [4]) | MIC (E. coli (W3110); [18]) | MIC (S. aureus (CCUG1800T); Staphylococcus aureus) | MIC ([5]; Staphylococcus aureus) | MIC [6] | protein localization MraY [7] | DAPI (E. coli W3110) | phase contrast (E. coli W3110) | FM4-64 (E. coli W3110) | gyrase inhibition (E. coli W3110) | protein localization PonA [9] | PG integrity (B. subtilis DSM402 [10]) | CWB inhibited? [11] | protein localization PbpB [13] | MreB mobility (MreB in B. subtilis MW10) | further results |
| --- | --- | --- | --- | --- | --- | --- | --- | --- | --- | --- | --- | --- | --- | --- | --- | --- | --- | --- | --- | --- | --- |
| CCn1cc(C(=O)O)c(=O)c2cc(F)c(N3CCN(C(=O)CN4CCCCC4)CC3)cc21 [7a] | additive (>0.5 to ≤4.0 as additive (no interaction)) | 0.75 | > 1150 µM | 144 µM (≈ 64 µg/mL) | 4.49 µM (≈ 2 µg/mL) | 16 µg/mL | 36 µM (≈ 16 µg/mL) | 8.99 µM (≈ 4 µg/mL) | 576 µM (≈ 256 µg/mL) | 72 µM (≈ 32 µg/mL) | – | – | – | – | – | – | – | – | – | – | FICC (fractional inhibitory concentration of the test compound) (E. coli [1]): 0.252; FICI (fractional inhibitory concentration index) (E. coli [1]): 1.002; MIC ([2]; Escherichia coli): > 1150 µM |
| CCn1cc(C(=O)O)c(=O)c2cc(F)c(N3CCN(C(=O)CN4CCOCC4)CC3)cc21 [7b] | additive (>0.5 to ≤4.0 as additive (no interaction)) | 0.0313 | 860 µM (≈ 384 µg/mL) | > 1150 µM | 8.95 µM (≈ 4 µg/mL) | 32 µg/mL | 71.7 µM (≈ 32 µg/mL) | 4.47 µM (≈ 2 µg/mL) | 287 µM (≈ 128 µg/mL) | 1.67 µM (≈ 0.746 µg/mL) | – | – | – | – | – | – | – | – | – | – | FICC (fractional inhibitory concentration of the test compound) (E. coli [1]): 0.5; FICI (fractional inhibitory concentration index) (E. coli [1]): 0.5313; MIC ([2]; Escherichia coli): 143 µM (≈ 64 µg/mL) |
| CCn1cc(C(=O)O)c(=O)c2cc(F)c(N3CCN(CN4C(=O)C(=O)c5cc(F)ccc54)CC3)cc21 [20a] | – | – | – | – | – | – | – | – | – | – | neither compound affected the localization; also recorded: rough | condensed | dark | smooth | yes | neither compound affected the localization; also recorded: septal | came close to the cutoff value; also recorded: intact | yes ^b | neither compound affected the localization; also recorded: smooth | much smaller clusters and more clusters per cell; also recorded: mobile with static foci | membrane damage (E. coli W3110): no; concentration (MIC against B. subtilis DSM402) (B. subtilis DSM402 [8]; Tab. S13, concentrations represent MIC values): 16.11 µM; μM (concentration used, 1x MIC) (B. subtilis DSM402 [8]): 16.11 µM; MIC (P. aeruginosa (PAO1)): 17.12 µM (≈ 8.5 µg/mL); MIC ([2]; norfloxacin-resistant clinical isolate): 16.11 µM (≈ 8 µg/mL); MIC [3]: 8.05 µM (≈ 4 µg/mL); DAPI (B. subtilis DSM402 [12]): condensed; phase contrast (B. subtilis DSM402 [12]): dark; FM4-64 (B. subtilis DSM402 [12]): patchy; gyrase inhibition (B. subtilis DSM402 [12]): yes; membrane damage (B. subtilis DSM402 [12]): yes; MIC (E. faecalis (ATCC 19433)): 3.02 µM (≈ 1.5 µg/mL); MIC (E. coli (W3110); Gram-negative strain, average of duplicate experiments, read-out: MIC E. coli (W3110)): 3.02 µM (≈ 1.5 µg/mL); concentration (MIC against E. coli W3110) (E. coli (W3110); Tab. S11, concentrations represent MIC values): 3.02 µM; protein localization MurG [14]: distinct MurG clusters all over the cells; also recorded: patchy; MIC (S. aureus (CCUG1800T)): 8.05 µM (≈ 4 µg/mL); MIC [5]: >1031.3 µM; MIC M. tuberculosis (MC26020) [6]: 64.45 µM (≈ 32 µg/mL); GlpT (E. coli BCB472): smooth |
| O=C(O)c1cn(C2CC2)c2cc(N3CCNCC3)c(F)cc2c1=O [Cip, ciprofloxacin, reference compound] | – | – | – | 7.54 µM (≈ 2.5 µg/mL) | 6.03 µM (≈ 2 µg/mL) | – | – | 3.01 µM (≈ 0.997 µg/mL) | 96.6 µM (≈ 32 µg/mL) | 2.26 µM (≈ 0.749 µg/mL) | rough | condensed | dark | smooth | yes | septal | intact | no | smooth | mobile | MIC (B. subtilis DSM402 [15]): 3.01 µM (≈ 0.997 µg/mL); membrane damage (E. coli W3110): no; DAPI (B. subtilis DSM402 [12]): condensed; phase contrast (B. subtilis DSM402 [12]): dark; FM4-64 (B. subtilis DSM402 [12]): few patches; gyrase inhibition (B. subtilis DSM402 [12]): yes; membrane damage (B. subtilis DSM402 [12]): possibly; MreB mobility (MreB in B. subtilis MW10; listed as ciprofloxacin): did not affect either MreB mobility or localization; GlpT (E. coli BCB472): smooth |
| CCn1cc(C(=O)O)c(=O)c2cc(F)c(N3CCNCC3)cc21 [Nor, norfloxacin, reference compound] | additive (>0.5 to ≤4.0 as additive (no interaction)) | 0.5 | 6.26 µM (≈ 2 µg/mL) | 9.39 µM (≈ 3 µg/mL) | 4.69 µM (≈ 1.5 µg/mL) | 0.125 µg/mL | 0.39 µM (≈ 0.125 µg/mL) | 3.13 µM (≈ 1 µg/mL) | 100 µM (≈ 32 µg/mL) | 1.56 µM (≈ 0.498 µg/mL) | rough | condensed | dark | smooth | yes | septal/patchy | intact | no | smooth | mobile with static foci | protein localization MraY ([7]; listed as norfloxacin): no effect on the other two proteins; MIC (B. subtilis DSM402 [15]): 18.1 µM (≈ 5.78 µg/mL); membrane damage (E. coli W3110): no; μM (concentration used, 1x MIC) (B. subtilis DSM402 [8]): 18.11 µM; inhibition at 10 µM (E. coli DNA gyrase): 73.6%; MIC ([2]; Escherichia coli, norfloxacin-resistant clinical isolate): 50.1 µM (≈ 16 µg/mL); IC50 at 24 h (in vitro): 48.2 ± 3.92 µM; protein localization PonA ([9]; listed as norfloxacin): accumulation in distinct foci at the cell membrane; DAPI (B. subtilis DSM402 [12]): condensed; phase contrast (B. subtilis DSM402 [12]): dark; FM4-64 (B. subtilis DSM402 [12]): few patches; gyrase inhibition (B. subtilis DSM402 [12]): yes; membrane damage (B. subtilis DSM402 [12]): possibly; MIC (E. coli (W3110); Escherichia coli, read-out: concentration (MIC against E. coli W3110)): 0.37 µM (≈ 0.118 µg/mL); protein localization PbpB ([13]; listed as norfloxacin): no effect on the other two proteins; protein localization MurG [14]: smooth/spotty; protein localization MurG ([14]; listed as norfloxacin): mostly smooth phenotype; larger MurG clusters ([14]; quantification of microscopy images): up to 30%; MreB mobility (MreB in B. subtilis MW10; listed as norfloxacin): the same effect was observed; GlpT (E. coli BCB472): smooth |
| CN[C@H](CC(C)C)C(=O)N[C@H]1C(=O)N[C@@H](CC(N)=O)C(=O)N[C@H]2C(=O)N[C@H]3C(=O)N[C@H](C(=O)N[C@H](C(=O)O)c4cc(O)cc(O)c4-c4cc3ccc4O)[C@H](O)c3ccc(c(Cl)c3)Oc3cc2cc(c3O[C@@H]2O[C@H](CO)[C@@H](O)[C@H](O)[C@H]2O[C@H]2C[C@](C)(N)[C@H](O)[C@H](C)O2)Oc2ccc(cc2Cl)[C@H]1O [Van, vancomycin, reference compound] | – | – | – | – | – | – | – | – | – | – | rough | – | – | – | – | septal | compromised | yes | smooth | static with foci | μM (concentration used, 1x MIC) (B. subtilis DSM402 [8]): 0.68 µM; protein localization MurG [14]: patchy/dispersed |
